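Assay format: 96-well plates, 48-hour exposure. GI50 marks 50% less growth.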 Calls of active or inactive are those of the source. Rule as the data show it: active = GI50 up to about 1.1 µM and inactive = higher.
Key:
Experiment in all cases: growth of human tumour cells (NCI), 48 h
A549 = test system: A549
ACHN = test system: ACHN
CCRF-CEM = test system: CCRF-CEM
DU-145 = test system: DU-145
HOP-62 = test system: HOP-62
LOX IMVI = test system: LOX IMVI
MCF7 = test system: MCF7
MDA-MB-231 = test system: MDA-MB-231
NCI-H226 = test system: NCI-H226
OVCAR-3 = test system: OVCAR-3
OVCAR-5 = test system: OVCAR-5
RXF 393 = test system: RXF 393
SF-295 = test system: SF-295
SF-539 = test system: SF-539
SK-MEL-28 = test system: SK-MEL-28
SN12C = test system: SN12C
T47D = test system: T47D
UACC-257 = test system: UACC-257
UO-31 = test system: UO-31
M14 = test system: M14

Measured: GI50

CC(C)N1CCN(c2ccc(OCC3COC(Cn4cncn4)(c4ccc(Cl)cc4Cl)O3)cc2)CC1 (stereo not drawn) [TERCONAZOLE]
inactive: A549 > 35.8 µM | ACHN 20.6 µM | CCRF-CEM 11.5 µM | DU-145 16.3 µM | HOP-62 13.8 µM | LOX IMVI 12 µM | MCF7 13.2 µM | MDA-MB-231 14 µM | NCI-H226 15 µM | OVCAR-3 13.5 µM | OVCAR-5 15 µM | RXF 393 11.6 µM | SF-295 12.8 µM | SF-539 13.3 µM | SK-MEL-28 4.63 µM | SN12C 15.8 µM | T47D 18 µM | UACC-257 1.89 µM | UO-31 > 21.9 µM

Cc1cc(-c2nc3cc(O)ccc3s2)ccc1N
inactive: A549 37 µM | ACHN 22.5 µM | CCRF-CEM 27.7 µM | DU-145 39.8 µM | HOP-62 26.8 µM | LOX IMVI 45 µM | M14 20.9 µM | MCF7 17.6 µM | MDA-MB-231 30 µM | NCI-H226 31.4 µM | OVCAR-3 23.5 µM | OVCAR-5 24.7 µM | RXF 393 27.5 µM | SF-295 26 µM | SF-539 25.5 µM | SK-MEL-28 27.8 µM | SN12C 28.8 µM | T47D 22.9 µM | UACC-257 35.1 µM | UO-31 18.7 µM

O=C(O)Cc1ccc([N+](=O)[O-])cc1[N+](=O)[O-]
inactive: A549 > 100 µM | ACHN > 100 µM | CCRF-CEM > 100 µM | DU-145 > 100 µM | HOP-62 > 100 µM | LOX IMVI > 100 µM | M14 > 100 µM | MCF7 > 100 µM | MDA-MB-231 > 100 µM | NCI-H226 > 100 µM | OVCAR-3 > 100 µM | OVCAR-5 > 100 µM | RXF 393 > 100 µM | SF-295 > 100 µM | SF-539 > 100 µM | SK-MEL-28 > 100 µM | SN12C > 100 µM | T47D > 100 µM | UACC-257 > 100 µM | UO-31 > 100 µM

CCCCCCC(=O)OC[n+]1cccc(-c2c(COC(=O)NC(C)C)c(COC(=O)NC(C)C)c3n2CCC3)c1
inactive: A549 60 µM | ACHN 21.4 µM | CCRF-CEM 9.55 µM | DU-145 35.9 µM | HOP-62 42.5 µM | LOX IMVI 22 µM | M14 39.2 µM | MCF7 27.6 µM | MDA-MB-231 47.3 µM | NCI-H226 60.7 µM | OVCAR-3 41.4 µM | OVCAR-5 > 58.9 µM | RXF 393 20.4 µM | SF-295 > 62.2 µM | SF-539 32.1 µM | SK-MEL-28 > 100 µM | SN12C 31 µM | T47D 61.8 µM | UACC-257 64.1 µM | UO-31 26.2 µM

O=C1/C(=C/c2cccc(Br)c2)CSC/C1=C\c1cccc(Br)c1
inactive: A549 4.32 µM | ACHN 2.87 µM | CCRF-CEM 1.4 µM | DU-145 8.69 µM | HOP-62 2.72 µM | LOX IMVI 1.57 µM | M14 2.4 µM | MCF7 3.17 µM | MDA-MB-231 4.2 µM | NCI-H226 3.72 µM | OVCAR-3 3.38 µM | OVCAR-5 4.88 µM | RXF 393 1.79 µM | SF-295 2.24 µM | SF-539 2.53 µM | SK-MEL-28 2.65 µM | SN12C 2.25 µM | T47D 4.89 µM | UACC-257 2.38 µM | UO-31 2.04 µM

C[N+](C)([O-])Cc1cccc(NC(=O)c2ccc(C(=O)Nc3cccc(C[N+](C)(C)[O-])c3)cc2)c1
inactive: A549 > 100 µM | ACHN > 100 µM | CCRF-CEM > 100 µM | DU-145 > 100 µM | HOP-62 > 100 µM | LOX IMVI > 100 µM | M14 > 100 µM | MCF7 > 100 µM | MDA-MB-231 > 100 µM | NCI-H226 > 100 µM | OVCAR-3 > 100 µM | OVCAR-5 > 100 µM | RXF 393 > 100 µM | SF-295 > 100 µM | SF-539 > 100 µM | SK-MEL-28 > 100 µM | SN12C > 100 µM | T47D > 100 µM | UACC-257 > 100 µM | UO-31 > 100 µM

Oc1cc(O)cc(-c2nc3cc(F)ccc3s2)c1
inactive: A549 26.1 µM | ACHN 24.7 µM | CCRF-CEM 27.5 µM | DU-145 32.8 µM | LOX IMVI 18.5 µM | M14 19.4 µM | MCF7 20.3 µM | MDA-MB-231 25.6 µM | NCI-H226 25.8 µM | OVCAR-3 22.6 µM | OVCAR-5 20.8 µM | RXF 393 22.7 µM | SF-295 17.8 µM | SF-539 29 µM | SK-MEL-28 48.8 µM | SN12C 29.4 µM | T47D 17.5 µM | UACC-257 16.4 µM | UO-31 24 µM

Source: ChEMBL document CHEMBL1201862, “PubChem BioAssay data set” (2004)
